Experimental data reported in patent publication US7034035B2, “Fungicidal mono-, bi-, and tri-cycloheteroalkyl amides and their compositions, methods of use and preparation” (priority 1999, dated 2006).

What was measured:
[1] = system: Rhizoctonia solani (RHIZSO); assay: microbe, parasite or virus in culture; format: cell-based
Ustilago maydis (USTIMA) = assay: microbe, parasite or virus in culture; format: cell-based
Also: test concentration or dose not given here.

SMILES	RHIZSO in vitro Growth Inhibition [1]	USTIMA in vitro Growth Inhibition (Ustilago maydis (USTIMA))
CCC1(C)OCC(NC(=O)c2nccc(OC)c2O)CO1 (stereo not drawn) [Compound 314]	− (key: +: at least 80% growth inhibition; −: less than 80% growth inhibition)	− (key: +: at least 80% growth inhibition; −: less than 80% growth inhibition)
COc1ccnc(C(=O)NC2CCN(C(=O)c3ccccc3)CC2)c1O [Compound 308]	–	− (key: +: at least 80% growth inhibition; −: less than 80% growth inhibition)
COc1ccnc(C(=O)NC2CC(C(F)(F)F)CC(C(F)(F)F)C2)c1O (stereo not drawn) [Compound 256]	− (key: +: at least 80% growth inhibition; −: less than 80% growth inhibition)	− (key: +: at least 80% growth inhibition; −: less than 80% growth inhibition)
COc1ccnc(C(=O)NCC#CCCl)c1O [Compound 239]	− (key: +: at least 80% growth inhibition; −: less than 80% growth inhibition)	− (key: +: at least 80% growth inhibition; −: less than 80% growth inhibition)
COc1ccnc(C(=O)NCCCc2cccnc2)c1O [Compound 243]	− (key: +: at least 80% growth inhibition; −: less than 80% growth inhibition)	− (key: +: at least 80% growth inhibition; −: less than 80% growth inhibition)
COc1ccnc(C(=O)N[C@@H]2CC3CC2C[C@@H]3COCc2cccc(C(F)(F)F)c2)c1O (stereo partly drawn) [Compound 297]	+ (key: +: at least 80% growth inhibition; −: less than 80% growth inhibition)	− (key: +: at least 80% growth inhibition; −: less than 80% growth inhibition)
COc1ccnc(C(=O)NC2CC(C)(C)C(Cl)C(Cl)[C@H](C)[C@H]2C)c1O (stereo partly drawn) [Compound 281]	− (key: +: at least 80% growth inhibition; −: less than 80% growth inhibition)	− (key: +: at least 80% growth inhibition; −: less than 80% growth inhibition)
O=C(Nc1ccc(Oc2ccc(C(F)(F)F)cc2)cc1)c1ncccc1O [Compound 217]	− (key: +: at least 80% growth inhibition; −: less than 80% growth inhibition)	− (key: +: at least 80% growth inhibition; −: less than 80% growth inhibition)
Cc1ccc(CNC(=O)c2ncccc2O)cc1 [Compound 223]	− (key: +: at least 80% growth inhibition; −: less than 80% growth inhibition)	+ (key: +: at least 80% growth inhibition; −: less than 80% growth inhibition)
COc1ccnc(C(=O)NC2C3CSC2CN(Cc2ccccc2)C3)c1O (stereo not drawn) [Compound 325]	− (key: +: at least 80% growth inhibition; −: less than 80% growth inhibition)	− (key: +: at least 80% growth inhibition; −: less than 80% growth inhibition)
COc1ccnc(C(=O)N[C@H]2CC[C@@H](Oc3ccc(C(F)(F)F)cc3)CC2)c1O [Compound 271]	+ (key: +: at least 80% growth inhibition; −: less than 80% growth inhibition)	+ (key: +: at least 80% growth inhibition; −: less than 80% growth inhibition)
COc1ccnc(C(=O)N[C@H]2C(O)[C@@H]3CC[C@H]2[C@@H]2CCCC[C@@H]23)c1O (stereo partly drawn) [Compound 293]	− (key: +: at least 80% growth inhibition; −: less than 80% growth inhibition)	− (key: +: at least 80% growth inhibition; −: less than 80% growth inhibition)
COc1ccnc(C(=O)NCC2C(C=C(C)C)C2(C)C)c1O (stereo not drawn) [Compound 241]	+ (key: +: at least 80% growth inhibition; −: less than 80% growth inhibition)	− (key: +: at least 80% growth inhibition; −: less than 80% growth inhibition)
CCCCC1(C)CCCC(NC(=O)c2nccc(OC)c2O)C1 (stereo not drawn) [Compound 254]	− (key: +: at least 80% growth inhibition; −: less than 80% growth inhibition)	− (key: +: at least 80% growth inhibition; −: less than 80% growth inhibition)
COc1ccnc(C(=O)NC2C[C@H](C)O[C@](C)(Cc3ccccc3)C2)c1O (stereo partly drawn) [Compound 313]	− (key: +: at least 80% growth inhibition; −: less than 80% growth inhibition)	− (key: +: at least 80% growth inhibition; −: less than 80% growth inhibition)
CCCCC1(C)CC(NC(=O)c2nccc(OC)c2O)CC(C)(C)C1 (stereo not drawn) [Compound 253]	− (key: +: at least 80% growth inhibition; −: less than 80% growth inhibition)	− (key: +: at least 80% growth inhibition; −: less than 80% growth inhibition)
CC(NC(=O)c1ncccc1O)c1ccc(Cl)cc1 (stereo not drawn) [Compound 230]	− (key: +: at least 80% growth inhibition; −: less than 80% growth inhibition)	− (key: +: at least 80% growth inhibition; −: less than 80% growth inhibition)
COc1ccnc(C(=O)NCC2COCCOCCOCCOCCO2)c1O (stereo not drawn) [Compound 245]	− (key: +: at least 80% growth inhibition; −: less than 80% growth inhibition)	− (key: +: at least 80% growth inhibition; −: less than 80% growth inhibition)

SMILES	RHIZSO in vitro Growth Inhibition [1]	USTIMA in vitro Growth Inhibition (Ustilago maydis (USTIMA))
COc1ccnc(C(=O)NC2CC(C)(C)CC(C)(C3CC3)C2)c1O (stereo not drawn) [Compound 252]	+ (key: +: at least 80% growth inhibition; −: less than 80% growth inhibition)	− (key: +: at least 80% growth inhibition; −: less than 80% growth inhibition)
COc1ccc(CNC(=O)c2ncccc2O)cc1 [Compound 226]	− (key: +: at least 80% growth inhibition; −: less than 80% growth inhibition)	− (key: +: at least 80% growth inhibition; −: less than 80% growth inhibition)
Cc1cc(C)cc(NC(=O)c2ncccc2O)c1 [Compound 215]	− (key: +: at least 80% growth inhibition; −: less than 80% growth inhibition)	− (key: +: at least 80% growth inhibition; −: less than 80% growth inhibition)
COc1ccnc(C(=O)NC2CCN(Cc3ccc(C)cc3)CC2)c1O [Compound 306]	− (key: +: at least 80% growth inhibition; −: less than 80% growth inhibition)	− (key: +: at least 80% growth inhibition; −: less than 80% growth inhibition)
COc1ccnc(C(=O)NCC(C)(C)Sc2ncc(C(F)(F)F)cc2Cl)c1O [Compound 244]	− (key: +: at least 80% growth inhibition; −: less than 80% growth inhibition)	− (key: +: at least 80% growth inhibition; −: less than 80% growth inhibition)
CCCCCCCCCNC(=O)c1ncccc1O [Compound 201]	− (key: +: at least 80% growth inhibition; −: less than 80% growth inhibition)	− (key: +: at least 80% growth inhibition; −: less than 80% growth inhibition)
COc1ccnc(C(=O)NC2CC(C)(C)C=CC=C2C)c1O (stereo not drawn) [Compound 278]	− (key: +: at least 80% growth inhibition; −: less than 80% growth inhibition)	− (key: +: at least 80% growth inhibition; −: less than 80% growth inhibition)
COc1ccnc(C(=O)NC2CCc3ccccc3C2=O)c1O (stereo not drawn) [Compound 285]	+ (key: +: at least 80% growth inhibition; −: less than 80% growth inhibition)	− (key: +: at least 80% growth inhibition; −: less than 80% growth inhibition)
O=C(NC1CCC(O)CC1)c1ncccc1O (stereo not drawn) [Compound 208]	− (key: +: at least 80% growth inhibition; −: less than 80% growth inhibition)	− (key: +: at least 80% growth inhibition; −: less than 80% growth inhibition)
COc1ccnc(C(=O)NC2O[C@H](CO)[C@H]3OC(C)(C)O[C@@H]23)c1O (stereo partly drawn) [Compound 329]	− (key: +: at least 80% growth inhibition; −: less than 80% growth inhibition)	− (key: +: at least 80% growth inhibition; −: less than 80% growth inhibition)
COc1ccnc(C(=O)N[C@@H]2OC[C@@H](OCc3ccccc3)[C@H](OCc3ccccc3)[C@H]2OCc2ccccc2)c1O [Compound 332]	− (key: +: at least 80% growth inhibition; −: less than 80% growth inhibition)	− (key: +: at least 80% growth inhibition; −: less than 80% growth inhibition)
CCCO[C@@H]1[C@@H](OCCC)[C@H](OCCC)CO[C@H]1NC(=O)c1nccc(OC)c1O [Compound 331]	− (key: +: at least 80% growth inhibition; −: less than 80% growth inhibition)	− (key: +: at least 80% growth inhibition; −: less than 80% growth inhibition)
Cc1ccnc(C(=O)NC2CC(C)(C)CC(C)(C)C2)c1O [Compound 236]	− (key: +: at least 80% growth inhibition; −: less than 80% growth inhibition)	− (key: +: at least 80% growth inhibition; −: less than 80% growth inhibition)
COCCCc1ccc2c(c1)OC(C)C(NC(=O)c1nccc(OC)c1O)C2=O (stereo not drawn) [Compound 322]	+ (key: +: at least 80% growth inhibition; −: less than 80% growth inhibition)	− (key: +: at least 80% growth inhibition; −: less than 80% growth inhibition)
COc1ccnc(C(=O)N[C@@H]2CC3CC2[C@@H](C(=O)OCCc2ccccc2)[C@H]3C(=O)OCC(C)C)c1O (stereo partly drawn) [Compound 301]	+ (key: +: at least 80% growth inhibition; −: less than 80% growth inhibition)	− (key: +: at least 80% growth inhibition; −: less than 80% growth inhibition)
O=C(NCc1ccc(Cl)cc1)c1ncccc1O [Compound 220]	+ (key: +: at least 80% growth inhibition; −: less than 80% growth inhibition)	+ (key: +: at least 80% growth inhibition; −: less than 80% growth inhibition)
CC1(C)CC(NC(=O)c2ncccc2O)CC(C)(C)C1=O [Compound 205]	− (key: +: at least 80% growth inhibition; −: less than 80% growth inhibition)	− (key: +: at least 80% growth inhibition; −: less than 80% growth inhibition)
